Results from patent US9266939B2, “Compositions comprising natriuretic peptides and methods of use thereof” (Alexion Pharmaceuticals, Inc., priority 2010, dated 2016).
Bridge positions count the residues as written; N and C are the ends. Ends that are not written are not given here. Peptide text beside a SMILES is read from it.

Experiments:
[1] = molecular target: T1, neutral endopeptidase (NEP) (Homo sapiens, UniProt P08473)
NPR-B = molecular target: T2, NPR-B (Homo sapiens, UniProt P20594); experiment: Whole cell guanylyl cyclase (cGMP) assay, NPR-B; type: cell-based; set-up: expressed in transfected cells; settings: for Emax: read-out: % Efficacy
T2 sequence (P20594 23-1047): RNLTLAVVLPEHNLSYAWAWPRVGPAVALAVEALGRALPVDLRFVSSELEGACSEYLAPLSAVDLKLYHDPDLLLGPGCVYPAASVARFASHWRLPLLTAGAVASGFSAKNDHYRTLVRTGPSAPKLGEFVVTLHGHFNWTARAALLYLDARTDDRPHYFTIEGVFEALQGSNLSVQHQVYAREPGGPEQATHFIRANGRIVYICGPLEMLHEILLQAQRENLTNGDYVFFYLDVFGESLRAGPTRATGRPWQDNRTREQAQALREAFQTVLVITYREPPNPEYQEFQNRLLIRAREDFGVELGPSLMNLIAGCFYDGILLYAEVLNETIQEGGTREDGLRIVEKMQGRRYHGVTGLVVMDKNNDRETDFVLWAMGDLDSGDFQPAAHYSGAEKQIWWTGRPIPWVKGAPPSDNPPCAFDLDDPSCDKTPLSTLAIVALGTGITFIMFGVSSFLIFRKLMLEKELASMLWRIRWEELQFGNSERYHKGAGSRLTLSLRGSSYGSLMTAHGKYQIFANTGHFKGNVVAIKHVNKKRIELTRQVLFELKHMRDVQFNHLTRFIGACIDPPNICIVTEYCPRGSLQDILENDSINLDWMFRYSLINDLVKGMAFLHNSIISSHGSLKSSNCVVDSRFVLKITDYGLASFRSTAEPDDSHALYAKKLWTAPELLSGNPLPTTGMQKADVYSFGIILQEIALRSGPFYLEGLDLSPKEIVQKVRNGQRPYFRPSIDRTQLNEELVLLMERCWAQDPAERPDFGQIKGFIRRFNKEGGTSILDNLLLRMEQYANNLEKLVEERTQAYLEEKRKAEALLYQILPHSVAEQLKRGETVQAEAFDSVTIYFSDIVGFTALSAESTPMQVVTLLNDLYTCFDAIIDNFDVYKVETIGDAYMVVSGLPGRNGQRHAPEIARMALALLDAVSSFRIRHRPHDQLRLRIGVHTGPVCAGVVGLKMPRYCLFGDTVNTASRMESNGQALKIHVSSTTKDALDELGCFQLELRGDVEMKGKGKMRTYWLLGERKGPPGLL
Experimental: HEK293S cells in a semi-confluent 75 cm2 flask are transfected with 30 μg of plasmid DNA coding for the appropriate receptor, e.g., human NPR-B or NPR-A, using Lipofectamine-2000CD. Alternatively, a stable polyclonal HEK293 S cell line expressing either human NPR-B or NPR-A was used. 24 hours after transfection, cells are trypsinized and plated into 48-well plates at 1×10^5 cells/well. Guanylyl cyclase assay is carried out 24 hours post-plating. Cells are first incubated for 30 minutes at 37° C. with serum-free DMEM medium. Then, they are incubated in triplicate with or without increasing concentrations of reference or test proteins in serum-free DMEM supplemented with 1 mM IBMX and 0.5% BSA, at 37° C. for 30 minutes to one hour. CNP serves as a suitable reference for NPR-B, while ANP is a suitable reference for NPR-A. Finally, cells are washed with ice-cold PBS and solubilized in lysis buffer from Catchpoint cGMP kit (Molecular devices). Concentrations of cGMP in lysate are determined using the Catchpoint cGMP kit. Dose-response curves are analysed with GraphPad Prism 5 software using non-linear regression with four-parameter logistic equation.

[2] = molecular target: T1, neutral endopeptidase (NEP); experiment: in vitro; settings: isolated enzyme neprilysin, pH 7.5

T1 sequence (P08473 whole entry): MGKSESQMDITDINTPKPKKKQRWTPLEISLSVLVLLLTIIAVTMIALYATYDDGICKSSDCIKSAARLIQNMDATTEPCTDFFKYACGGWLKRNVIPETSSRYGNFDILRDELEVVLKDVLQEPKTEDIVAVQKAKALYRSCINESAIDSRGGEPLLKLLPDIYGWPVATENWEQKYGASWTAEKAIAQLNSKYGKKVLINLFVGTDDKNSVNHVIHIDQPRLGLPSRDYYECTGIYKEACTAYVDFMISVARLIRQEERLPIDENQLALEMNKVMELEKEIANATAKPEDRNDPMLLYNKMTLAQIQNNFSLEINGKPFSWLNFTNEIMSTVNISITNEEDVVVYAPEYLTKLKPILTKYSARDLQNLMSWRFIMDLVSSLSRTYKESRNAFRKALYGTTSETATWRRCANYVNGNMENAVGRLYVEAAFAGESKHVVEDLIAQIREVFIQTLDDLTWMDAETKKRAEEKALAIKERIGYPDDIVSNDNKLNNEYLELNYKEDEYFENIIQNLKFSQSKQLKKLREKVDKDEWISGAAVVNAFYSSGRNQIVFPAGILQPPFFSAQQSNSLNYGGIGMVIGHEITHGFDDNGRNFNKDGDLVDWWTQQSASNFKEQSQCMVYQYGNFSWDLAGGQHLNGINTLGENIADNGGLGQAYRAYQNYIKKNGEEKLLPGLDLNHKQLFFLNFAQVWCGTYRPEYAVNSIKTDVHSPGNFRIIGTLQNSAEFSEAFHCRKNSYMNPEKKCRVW

## EEEEEESGGGGSGGGQGANQKGLSKGCFGLKLDRIGSMSGLGC (disulfide 27-43) [C10(E6) [BC10]]
[1]
  Resist NEP degradation (No/Yes): Yes
NPR-B
  EC50 Ratio versus CNP22: 168
  Rescue Ratio Average: 90
  Rescue Ratio versus CNP22: 89-90
  Rescue range: 213 to 1253 nM
  EC50: 2470 nM
  Emax: 156%
[2]
  remaining at 4 h: 102%

## CC[C@H](C)[C@@H]1NC(=O)[C@H](CCCNC(=N)N)NC(=O)[C@H](CC(=O)O)NC(=O)[C@H](CC(C)C)NC(=O)[C@H](CCCCN)NC(=O)[C@H](CC(C)C)NC(=O)CNC(=O)[C@H](Cc2ccccc2)NC(=O)[C@@H](NC(=O)CNC(=O)[C@H](CCCCN)NC(=O)[C@H](CO)NC(=O)[C@H](CC(C)C)NC(=O)CNC(=O)CNC(=O)[C@H](CO)NC(=O)[C@H](CO)NC(=O)[C@H](C)NC(=O)[C@H](C)NC(=O)[C@@H]2CCCN2C(=O)[C@H](CCCNC(=N)N)NC(=O)[C@@H]2CCCN2C(=O)[C@H](CC(N)=O)NC(=O)[C@H](C)NC(=O)[C@@H]2CCCN2C(=O)[C@H](CO)NC(=O)[C@@H](NC(=O)[C@H](CO)NC(=O)[C@H](C)N)[C@@H](C)O)CSSC[C@@H](C(=O)O)NC(=O)CNC(=O)[C@H](CC(C)C)NC(=O)CNC(=O)[C@H](CO)NC(=O)[C@H](CCSC)NC(=O)[C@H](CO)NC(=O)CNC1=O [CNP-Nterm2 [C5]] (HELM PEPTIDE1{A.S.T.S.P.A.N.P.R.P.A.A.S.S.G.G.L.S.K.G.C.F.G.L.K.L.D.R.I.G.S.M.S.G.L.G.C}$PEPTIDE1,PEPTIDE1,21:R3-37:R3$$$V2.0)
[2]
  remaining at 4 h: 106%

## EEEEEESGGGGSGGGKGANQKGLSKGCFGLKLDRIGSMSGLGC (disulfide 27-43) [C7(E6) [BC7]]
[1]
  Resist NEP degradation (No/Yes): Yes
NPR-B
  EC50 Ratio versus CNP22: 68.6
  Rescue Ratio Average: 80
  Rescue Ratio versus CNP22: 74-85
  Rescue range: 177 to 1193 nM
  EC50: 1010 nM
  Emax: 95%
[2]
  remaining at 4 h: 98%

## EEEEEESGGGGSGGGKGANKQGLSKGCFGLKLDRIGSMSGLGC (disulfide 27-43) [C6(E6) [BC6]]
[1]
  Resist NEP degradation (No/Yes): Yes
NPR-B
  EC50 Ratio versus CNP22: 45.7
  Rescue Ratio Average: 63
  Rescue Ratio versus CNP22: 55-70
  Rescue range: 132 to 973 nM
  EC50: 672 nM
  Emax: 88%
[2]
  remaining at 4 h: 98%

## EEEEEESGGGGSGGGQGANQQGLSKGCFGLKLDRIGSMSGLGC (disulfide 27-43) [C5(E6) [BC5]]
[1]
  Resist NEP degradation (No/Yes): Yes
NPR-B
  EC50 Ratio versus CNP22: 161
  Rescue Ratio Average: 138
  Rescue range: 334 to 1899 nM
  EC50: 2360 nM
  Emax: 96%
[2]
  remaining at 4 h: 100%

## CC[C@H](C)[C@@H]1NC(=O)[C@H](CCCNC(=N)N)NC(=O)[C@H](CC(=O)O)NC(=O)[C@H](CC(C)C)NC(=O)[C@H](CCCCN)NC(=O)[C@H](CC(C)C)NC(=O)CNC(=O)[C@H](Cc2ccccc2)NC(=O)[C@@H](NC(=O)CNC(=O)[C@H](CCCCN)NC(=O)[C@H](CO)NC(=O)[C@H](CC(C)C)NC(=O)CN)CSSC[C@@H](C(=O)N2CCC[C@H]2C(=O)N[C@@H](CO)C(=O)N[C@@H](CO)C(=O)N[C@@H](C)C(=O)N[C@@H](C)C(=O)N[C@@H](CCCNC(=N)N)C(=O)N[C@@H](CCCNC(=N)N)C(=O)N2CCC[C@H]2C(=O)N[C@@H](CC(N)=O)C(=O)N[C@@H](C)C(=O)N2CCC[C@H]2C(=O)N[C@@H](CO)C(=O)N[C@H](C(=O)N[C@@H](CO)C(=O)N[C@@H](C)C(=O)O)[C@@H](C)O)NC(=O)CNC(=O)[C@H](CC(C)C)NC(=O)CNC(=O)[C@H](CO)NC(=O)[C@H](CCSC)NC(=O)[C@H](CO)NC(=O)CNC1=O [CDNP-S3A4A5R6 [C13]] (HELM PEPTIDE1{G.L.S.K.G.C.F.G.L.K.L.D.R.I.G.S.M.S.G.L.G.C.P.S.S.A.A.R.R.P.N.A.P.S.T.S.A}$PEPTIDE1,PEPTIDE1,6:R3-22:R3$$$V2.0)
[2]
  remaining at 4 h: 100%

## EEEEEEPSSAAPQPNAPSTSAGLSKGCFGLKLDRIGSMSGLGC (disulfide 27-43) [C3(E6) [BC3]]
[1]
  Resist NEP degradation (No/Yes): Yes
NPR-B
  EC50 Ratio versus CNP22: 67.4
  Rescue Ratio Average: 199
  Rescue Ratio versus CNP22: 117-281
  Rescue range: 280 to 3927 nM
  EC50: 990 nM
  Emax: 67%
[2]
  remaining at 4 h: 100%

## GLSKGCFGLKLDRIGSMSGLGCGGGGSGGGGSGGGGDDDDDD (disulfide 6-22) [CNP-14AAlinker-D6 [C4]]
[1]
  % of control after 240 min: 75%
  Resist NEP degradation (No/Yes): Yes
NPR-B
  EC50 Ratio versus CNP22: 146
  Rescue Ratio Average: 545
  Rescue Ratio versus CNP22: 375-714
  Rescue range: 900 to 10000 nM
  EC50: 2140 nM
  Emax: 156%
[2]
  remaining at 4 h: 75%

## EEEEEESGGGGSGGGGSGGGGGLSKGCFGLKLDRIGSMSGLGC (disulfide 27-43) [C1(E6) [BC1]]
[1]
  Resist NEP degradation (No/Yes): Yes
NPR-B
  EC50 Ratio versus CNP22: 118
  Rescue Ratio Average: 122
  Rescue Ratio versus CNP22: 120-124
  Rescue range: 289 to 1733 nM
  EC50: 1740 nM
  Emax: 97%
[2]
  remaining at 4 h: 99%

## EEEEEEHGPQGQEHPNARKYKGANKKGLSKGCFGLKLDRIGSMSGLGC (disulfide 32-48) [KA1(E6)]
[1]
  Resist NEP degradation (No/Yes): Yes
NPR-B
  EC50 Ratio versus CNP22: 9.79
  Rescue Ratio Average: 8.2
  Rescue range: 21.6 to 102 nM
  potency compared with the other tested peptides: more potent than the other tested peptides
  EC50: 144 nM
  Emax: 108%
[2]
  remaining at 4 h: 108%

## CC[C@H](C)[C@@H]1NC(=O)[C@H](CCCNC(=N)N)NC(=O)[C@H](CC(=O)O)NC(=O)[C@H](CC(C)C)NC(=O)[C@H](CCCCN)NC(=O)[C@H](CC(C)C)NC(=O)CNC(=O)[C@H](Cc2ccccc2)NC(=O)[C@@H](NC(=O)CNC(=O)[C@H](CCCCN)NC(=O)[C@H](CO)NC(=O)[C@H](CC(C)C)NC(=O)CN)CSSC[C@@H](C(=O)N2CCC[C@H]2C(=O)N[C@@H](CO)C(=O)N[C@@H](CO)C(=O)N[C@@H](C)C(=O)N[C@@H](C)C(=O)N[C@@H](CCCNC(=N)N)C(=O)N[C@@H](CCCNC(=N)N)C(=O)O)NC(=O)CNC(=O)[C@H](CC(C)C)NC(=O)CNC(=O)[C@H](CO)NC(=O)[C@H](CCSC)NC(=O)[C@H](CO)NC(=O)CNC1=O [CDNP29-S3A4A5R6 [C14]]
[2]
  remaining at 4 h: 99%

## EEEEEESGGGGSGGGQGANKQGLSKGCFGLKLDRIGSMSGLGC (disulfide 27-43) [C11(E6) [BC11]]
[1]
  Resist NEP degradation (No/Yes): Yes
NPR-B
  EC50 Ratio versus CNP22: 60.4
  Rescue Ratio Average: 120
  Rescue range: 289 to 1662 nM
  EC50: 888 nM
  Emax: 95%
[2]
  remaining at 4 h: 102%

## EEEEEEASTSPANPQPAASSPGLSKGCFGLKLDRIGSMSGLGC (disulfide 27-43) [C2(E6) [BC2]]
[1]
  Resist NEP degradation (No/Yes): Yes
NPR-B
  EC50 Ratio versus CNP22: 49.0
  Rescue Ratio Average: 803
  Rescue Ratio versus CNP22: 177-1429
  Rescue range: 424 to 20000 nM
  EC50: 720 nM
  Emax: 97%
[2]
  remaining at 4 h: 101%

## DDDDDDGGGGSGGGGSGGGGGLSKGCFGLKLDRIGSMSGLGC (disulfide 26-42) [D6-14AAlinker-CNP [C3]]
[2]
  remaining at 4 h: 101%

## EEEEEESGGGGSGGGKGANKKGLSKGCFGLKLDRIGSMSGLGC (disulfide 27-43) [C4(E6) [BC4]]
[1]
  Resist NEP degradation (No/Yes): Yes
NPR-B
  EC50 Ratio versus CNP22: 20.5
  Rescue Ratio Average: 18
  Rescue range: 46 to 219 nM
  EC50: 302 nM
  Emax: 136%
[2]
  remaining at 4 h: 94%
